Key:
[1] = biological target: T1, M3 muscarinic receptor (Homo sapiens, UniProt P20309); assay: M3 binding assay ([3H]-scopolamine, N-methyl chloride displacement); settings: for % Inhibition, M3 / % Specific Binding, M3: average N=2
T1 construct: purchased PerkinElmer, Inc., Wellesley, Mass; host or cells: CHO cells

[2] = biological target: T2, H1 histamine receptor (Bos taurus, UniProt P30546); assay: H1 binding assay ([3H]pyrilamine displacement); set-up: species or system bovine; settings: average N=2
T2 construct: the receptors were obtained from bovine cerebellar membrane tissue; from tissue; host or cells: bovine cerebellar membranes

[3] = biological target: Histamine, H1 (Bos taurus, UniProt P30546); assay: Binding specificity panel; settings: 1.0E−6; average N=2
Source text: The percentage inhibition (average; N=2) for these receptors is shown below in Table 12.
Values in Table 12 are expressed as percentage inhibition of specific binding, and these values represent the average of replicate tubes at each of the concentrations tested.

[4] = tested on: male Wistar rats; assay: SCORE-2000 sleep-wakefulness, locomotor activity and body temperature monitoring
[5] = biological target: T3, M1 muscarinic receptor (Homo sapiens, UniProt P11229); assay: M1 binding assay ([3H]-scopolamine, N-methyl chloride displacement)
T3 construct: purchased PerkinElmer, Inc., Wellesley, Mass; host or cells: CHO cells
T3 sequence (P11229 1-460): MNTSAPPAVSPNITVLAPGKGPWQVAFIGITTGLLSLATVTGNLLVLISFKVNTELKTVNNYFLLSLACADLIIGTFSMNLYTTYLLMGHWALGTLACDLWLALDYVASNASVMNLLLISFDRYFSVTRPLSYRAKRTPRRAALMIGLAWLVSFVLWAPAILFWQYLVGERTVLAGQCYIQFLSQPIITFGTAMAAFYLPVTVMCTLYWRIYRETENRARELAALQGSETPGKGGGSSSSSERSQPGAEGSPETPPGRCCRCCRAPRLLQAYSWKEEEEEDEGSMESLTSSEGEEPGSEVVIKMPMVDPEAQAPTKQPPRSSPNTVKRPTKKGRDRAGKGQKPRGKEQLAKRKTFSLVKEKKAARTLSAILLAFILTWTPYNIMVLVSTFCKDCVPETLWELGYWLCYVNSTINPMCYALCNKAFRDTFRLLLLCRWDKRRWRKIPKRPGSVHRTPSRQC

[6] = biological target: T4, M2 muscarinic receptor (Homo sapiens, UniProt P08172); assay: M2 binding assay ([3H]-scopolamine, N-methyl chloride displacement)
T4 construct: purchased PerkinElmer, Inc., Wellesley, Mass; host or cells: CHO cells
T4 sequence (P08172 1-466): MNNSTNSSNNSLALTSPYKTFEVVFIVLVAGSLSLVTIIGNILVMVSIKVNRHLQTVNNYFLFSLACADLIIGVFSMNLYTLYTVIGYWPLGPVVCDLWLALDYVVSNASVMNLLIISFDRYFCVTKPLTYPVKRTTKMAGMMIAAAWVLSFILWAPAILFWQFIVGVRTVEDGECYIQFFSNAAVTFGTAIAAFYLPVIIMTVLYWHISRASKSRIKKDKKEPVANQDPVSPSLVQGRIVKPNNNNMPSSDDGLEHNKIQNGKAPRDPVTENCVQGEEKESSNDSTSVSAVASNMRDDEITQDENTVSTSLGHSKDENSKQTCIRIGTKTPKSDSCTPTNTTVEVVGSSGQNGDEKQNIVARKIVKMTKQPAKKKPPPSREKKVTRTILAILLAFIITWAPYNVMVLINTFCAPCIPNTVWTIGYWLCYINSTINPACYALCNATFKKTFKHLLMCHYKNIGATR

T1 sequence (P20309 whole entry): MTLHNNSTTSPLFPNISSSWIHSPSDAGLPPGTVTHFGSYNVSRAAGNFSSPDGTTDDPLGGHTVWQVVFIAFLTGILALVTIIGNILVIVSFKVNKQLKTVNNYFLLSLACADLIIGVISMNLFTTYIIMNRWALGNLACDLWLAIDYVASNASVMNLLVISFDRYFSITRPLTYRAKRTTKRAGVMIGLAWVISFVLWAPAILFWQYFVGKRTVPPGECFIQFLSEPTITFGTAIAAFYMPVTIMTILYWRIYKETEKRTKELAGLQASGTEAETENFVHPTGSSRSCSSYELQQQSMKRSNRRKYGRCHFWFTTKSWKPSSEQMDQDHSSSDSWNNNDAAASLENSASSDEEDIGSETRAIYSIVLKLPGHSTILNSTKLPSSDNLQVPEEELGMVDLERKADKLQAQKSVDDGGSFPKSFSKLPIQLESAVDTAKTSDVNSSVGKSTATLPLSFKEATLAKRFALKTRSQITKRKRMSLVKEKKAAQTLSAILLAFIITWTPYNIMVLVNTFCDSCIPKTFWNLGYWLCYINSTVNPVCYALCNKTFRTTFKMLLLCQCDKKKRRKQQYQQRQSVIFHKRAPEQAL
T2 sequence (P30546 whole entry): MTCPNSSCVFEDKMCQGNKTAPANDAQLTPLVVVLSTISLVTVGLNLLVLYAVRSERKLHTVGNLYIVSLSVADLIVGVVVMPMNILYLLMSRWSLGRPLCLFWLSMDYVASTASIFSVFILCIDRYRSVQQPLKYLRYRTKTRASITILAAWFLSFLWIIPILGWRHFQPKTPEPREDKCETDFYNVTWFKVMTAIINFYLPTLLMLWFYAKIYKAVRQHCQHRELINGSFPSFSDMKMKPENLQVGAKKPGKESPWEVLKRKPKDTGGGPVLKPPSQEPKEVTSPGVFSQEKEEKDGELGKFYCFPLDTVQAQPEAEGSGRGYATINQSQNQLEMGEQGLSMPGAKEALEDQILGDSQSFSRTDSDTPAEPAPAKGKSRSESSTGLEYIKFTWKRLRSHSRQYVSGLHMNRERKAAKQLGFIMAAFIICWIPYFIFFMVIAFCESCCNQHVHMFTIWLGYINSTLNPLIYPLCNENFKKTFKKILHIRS
Chain of Histamine, H1 (P30546 whole entry): as above

Structure (SMILES): CC(CC(=O)O)N1CCC(=C2c3ccc(F)cc3COc3ccccc32)CC1 (stereo not shown) [Compound 37]
- % Inhibition, M3 ([1]; concentration 1.0E−5): 4.27%
- % Specific Binding, M3 ([1]; concentration 1.0E−5): 95.73%
- % Inhibition, M3 ([1]; concentration 1.0E−6): 0.79%
- % Specific Binding, M3 ([1]; concentration 1.0E−6): 99.21%
- % Inhibition, M3 ([1]; concentration 1.0E−7): 5.85%
- % Specific Binding, M3 ([1]; concentration 1.0E−7): 93.15%
- % Inhibition, M3 ([1]; concentration 1.0E−8): −8.34%
- % Specific Binding, M3 ([1]; concentration 1.0E−8): 108.34%
- % Inhibition, M3 ([1]; concentration 1.0E−9): −0.65%
- % Specific Binding, M3 ([1]; concentration 1.0E−9): 100.65%
- % Specific Binding, M3 ([1]; concentration 3.0E−6): 94.59%
- % Specific Binding, M3 ([1]; concentration 3.0E−7): 94.45%
- % Inhibition, M3 ([1]; concentration 3.0E−8): 6.99%
- % Specific Binding, M3 ([1]; concentration 3.0E−8): 93.01%
- % Inhibition, H1 ([2]; concentration 1.0E−5): 95.79%
- % Specific Binding, H1 ([2]; concentration 1.0E−5): 3.21%
- % Inhibition, H1 ([2]; concentration 1.0E−6): 93.75%
- % Specific Binding, H1 ([2]; concentration 1.0E−6): 6.25%
- % Inhibition, H1 ([2]; concentration 1.0E−7): 60.82%
- % Specific Binding, H1 ([2]; concentration 1.0E−7): 39.18%
- % Inhibition, H1 ([2]; concentration 1.0E−8): 8.60%
- % Specific Binding, H1 ([2]; concentration 1.0E−8): 91.40%
- % Inhibition, H1 ([2]; concentration 1.0E−9): 2.99%
- % Specific Binding, H1 ([2]; concentration 1.0E−9): 97.01%
- % Specific Binding, H1 ([2]; concentration 3.0E−6): 6.74%
- % Inhibition, H1 ([2]; concentration 3.0E−7): 81.03%
- % Specific Binding, H1 ([2]; concentration 3.0E−7): 18.97%
- % Inhibition, H1 ([2]; concentration 3.0E−8): 30.37%
- % Specific Binding, H1 ([2]; concentration 3.0E−8): 69.53%
- percentage inhibition of specific binding [3]: 23.13%
- REM inhibition ([4]; 10 mg/kg): did not produce any
- rebound insomnia ([4]; 10 mg/kg): did not produce any
- reduction in body temperature ([4]; 10 mg/kg): no disproportional reduction
- reduction in locomotor activity (LMA) ([4]; 10 mg/kg): no disproportional reduction
- Cumulative NREM sleep time increase, adjusted for baseline and relative to vehicle ([4]; 10 mg/kg PO, CT-18): 53 min
- absolute average sleep bout ([4]; 10 mg/kg PO, CT-18): 9 min
- average sleep bout length increase, adjusted for baseline and relative to vehicle ([4]; 10 mg/kg PO, CT-18): 5.3 min
- peak NREM sleep time ([4]; 10 mg/kg PO, CT-18): 64 % per hour
- body temperature ([4]; 30 mg/kg): unacceptable drop in body temperature
- reduction in LMA ([4]; 30 mg/kg): no disproportional reduction
- Cumulative NREM sleep time increase, adjusted for baseline and relative to vehicle ([4]; 30 mg/kg PO, CT-18): 62 min
- absolute average sleep bout ([4]; 30 mg/kg PO, CT-18): 9 min
- absolute longest sleep bout post-treatment ([4]; 30 mg/kg PO, CT-18): 25 min
- average sleep bout length increase, adjusted for baseline and relative to vehicle ([4]; 30 mg/kg PO, CT-18): 5.6 min
- peak NREM sleep time ([4]; 30 mg/kg PO, CT-18): 72 % per hour
- REM inhibition ([4]; 30 mg/kg, CT-18): did not produce any appreciable REM inhibition

Structure (SMILES): CC(C)(CN1CCC(=C2c3ccccc3COc3ccccc32)CC1)C(=O)O [Compound 69a]
- Ki [1]: > 10 µM
- Ki [5]: > 10 µM
- Ki [6]: > 10 µM

Reference: patent publication US7411069B2 (Hypnion, Inc., priority 2003, dated 2008)
